From article PMC9151520 (Archives of Toxicology, 2022)
“And” between values parts separate entries of the source, which are not always exact repeats. Equal values may be shown once. Read-outs that look alike come from different tables or passages of the source.

Key:
[1] = test system: p53 signaling (p53RE-bla HCT-116 cells); experiment: cells; assay type: cell-based
[2] = test system: p53 signaling (p53RE-bla HCT-116 cells)
[3] = test system: p53 signaling (p53RE-bla HCT-116 cells); remark: listed apart in the source
[4] = read-out: p53 activation EC50, cherry pick confirmation
[5] = read-out: p53 activation EC50, primary screening
[6] = Homo sapiens, HCT-116, read-out: p53 activation EC50, primary screening
[7] = Homo sapiens, HCT-116, read-out: p53 activation efficacy, primary screening

Row | Compound | p53 activation efficacy, cherry pick confirmation [1] | p53 activation efficacy, primary screening [1] | EC50 [1, 4] | EC50 [1, 5] | p53 activation EC50, cherry pick confirmation [2] | p53 activation EC50, primary screening [2] | p53 activation efficacy, cherry pick confirmation [2] | p53 activation efficacy, primary screening [2] | p53 activation EC50, cherry pick confirmation [3] | p53 activation EC50, primary screening [3] | p53 activation efficacy, cherry pick confirmation [3] | p53 activation efficacy, primary screening [3] | Viability EC50, cherry pick confirmation (p53RE-bla HCT-116 cells) | Viability EC50, primary screening (p53RE-bla HCT-116 cells) | Viability efficacy, cherry pick confirmation (p53RE-bla HCT-116 cells) | Viability efficacy, primary screening (p53RE-bla HCT-116 cells) | other results
1 | CC(O)C(=O)O.CCOc1ccc2nc3cc(N)ccc3c(N)c2c1.O [Ethacridine lactate hydrate] | 145.785 | 113.254 | 19.1 µM | 21.5 µM | inactive | inactive | inactive | inactive | inactive | inactive | inactive | inactive | inactive | inactive | inactive | inactive | 
2 | C=C(CC)C(=O)c1ccc(OCC(=O)O)c(Cl)c1Cl [Ethacrynic acid] | inactive |  |  |  | inactive | inactive | inactive | inactive | inactive | inactive | inactive | inactive | inactive | inactive | inactive | inactive | p53 activation EC50, cherry pick confirmation [1]: inactive; EC50 [1, 6]: 8.57 µM; Emax [1, 7]: 27.2%
3 | O=c1cc(-c2ccccc2)oc2cc(O)cc(O)c12 [Chrysin] |  |  |  |  |  |  |  |  |  |  |  |  |  |  |  |  | EC50 ([1]; Homo sapiens, HCT-116, read-out: EC50, p53 activation, cherry pick confirmation): 45 µM; EC50 ([1]; Homo sapiens, HCT-116, read-out: EC50, p53 activation, primary screening): 49.5 µM; Emax ([1]; Homo sapiens, HCT-116, read-out: Efficacy, p53 activation, cherry pick confirmation): 43.6%; Emax ([1]; Homo sapiens, HCT-116, read-out: Efficacy, p53 activation, primary screening): 38.6%; EC50, p53 activation, cherry pick confirmation [2]: inactive; EC50, p53 activation, primary screening [2]: inactive; Efficacy, p53 activation, cherry pick confirmation [2]: inactive; Efficacy, p53 activation, primary screening [2]: inactive; EC50, p53 activation, cherry pick confirmation [3]: inactive; EC50, p53 activation, primary screening [3]: inactive; Efficacy, p53 activation, cherry pick confirmation [3]: inactive; Efficacy, p53 activation, primary screening [3]: inactive; EC50, viability, cherry pick confirmation (p53RE-bla HCT-116 cells): inactive; EC50, viability, primary screening (p53RE-bla HCT-116 cells): inactive; Efficacy, viability, cherry pick confirmation (p53RE-bla HCT-116 cells): inactive; Efficacy, viability, primary screening (p53RE-bla HCT-116 cells): inactive
4 | CO.COc1cc(Nc2c(C#N)cnc3cc(OCCCN4CCN(C)CC4)c(OC)cc23)c(Cl)cc1Cl [Bosutinib methanoate] | 36.685 | 29.3917 | 17.3 µM | 15.4 µM | inactive | inactive | inactive | inactive | inactive | inactive | inactive | inactive | inactive | inactive | inactive | inactive | 
5 | Cc1ccccc1C(=O)Nc1ccc(C(=O)N2CCCC(N(C)C)c3ccccc32)cc1 (stereo not shown) [Mozavaptan] |  |  |  |  | inactive | inactive | inactive | inactive | inactive | inactive | inactive | inactive | inactive | inactive | inactive | inactive | EC50 ([1]; Homo sapiens, HCT-116, read-out: p53 activation EC50, cherry pick confirmation): 1.36 µM; EC50 [1, 6]: 7.97 µM; Emax ([1]; Homo sapiens, HCT-116, read-out: p53 activation efficacy, cherry pick confirmation): 38.6%; Emax [1, 7]: 66.2%
6 | COC(=O)/C=C(\C)OP(=O)(OC)OC [Mevinphos] |  |  |  |  |  |  |  |  |  |  |  |  |  |  |  |  | p53 activation EC50 [1]: inactive; p53 activation efficacy [1]: inactive; EC50 [2]: 7.96 µM; p53 activation efficacy [2]: 77.3871 and 64.7167; p53 activation EC50 [3]: inactive; Viability EC50 (p53RE-bla HCT-116 cells): inactive; Viability efficacy (p53RE-bla HCT-116 cells): inactive
7 | PharmaGSID_48505 | 67.8753 | 66.729 | 2.82 µM | 0.396 µM | inactive | inactive | inactive | inactive | inactive | inactive | inactive | inactive | inactive | inactive | inactive | inactive | 
